target: KRasG12C (M1-K169, biotinylated on the N-terminus) (Homo sapiens (Human), UniProt P01116, G12C); experiment: Covalent competition assay: scintillation proximity assay (SPA) quantifying covalent modification of KRASG12C; format: binding; settings: competition with radiolabeled covalent probe (Compound B/Compound A), 2 hours incubation, 10 nM KRasG12C
Procedure: Cells were harvested by centrifugation and frozen at −80° C. until further processing. […] The cells were lysed by 4 passages through an Avestin Emulsiflex at about 20000 psi and insoluble debris removed by centrifugation and filtered through a 0.45 µm Durapore membrane (Millipore). […] Eluted protein fractions were analyzed by Novex NuPage 4-12% PAGE. […] The protein in the flow through was subjected to a final polishing step on a HiLoad 16/60 Superdex 200 prep grade size-exclusion column pre-equilibrated with SEC-buffer (20 mM HEPES pH 7.4, 150 mM NaCl, 5 mM MgCl2, 1 µM GDP). Positive fractions were determined by PAGE (Novex NuPage 4-12% BisTris) analysis.
A scintillation proximity assay (SPA) was used to determine the potency of the compounds.
This assay measures the ability of the test compound to compete with the radiolabeled covalent probe for binding to and covalently modify KRASG12C.
(see above for synthesis of Compound A and Compound B). A serial dilution of the compounds to be tested is mixed with a fixed concentration of the radiolabeled covalent probe before incubation with KRASG12C:GDP as described below. KRASG12C can either be bound by the radiolabeled covalent probe (Compound B), resulting in light being emitted from the beads, or bound by covalent test compound preventing signal generation.
A 1/20 isotopic dilution of labeled (Compound B) and non-labeled covalent (Compound A) probe was prepared and added to all wells on the plate. The reaction was started by addition of KRasG12C (M1-K169, biotinylated on the N-terminus) to the compounds and incubated for 2 hours with continuous agitation allowing for full modification of KRasG12C with probe or test compounds. Final concentrations in an assay volume of 40 μL were 10 nM KRasG12C, 25 nM radio-ligand and 475 nM unlabelled ligand. The assay buffer contained 20 mM Tris-HCl pH 7.5 (Invitrogen), 150 mM NaCl (Sigma Aldrich), 0.1 mM MgCl2 (Sigma Aldrich), and 0.01% Tween-20 (Sigma Aldrich). Following addition of 50 μL of a 400 μg/mL suspension of streptavidin-coated YSi beads (Perkin Elmer), plates were incubated for a further 30 min with continuous agitation before reading the plates on a scintillation counter (Topcount NXT 384 (Packard).
Evaluation was carried out using assay data analysis software (such as the standard Novartis in-house Helios software application, Novartis Institutes for BioMedical Research, unpublished) using the methods described in Formenko et al., Robust Regression for high-throughput screening, Computer Methods and Programs in Biomedicine, 2006, 82, 31-37. Following normalization of activity values for the wells to % inhibition (% inhibition=[(high control−sample)/(high control−low control)]×100), IC50 fitting was carried out from the duplicate determinations present on each plate according to Formenko et al., 2006.
Evaluation can also be carried out using commercially available software which is designed to derive IC50 values using 4-parameter fits (e.g. GraphPad Prism, XL fit).

| IC50 [nM] | Structure (SMILES) |
| --- | --- |
| 8 | C=CC(=O)N1CC2(CC(n3nc(N4CC[C@@H](CN5CCC56COC6)CC4(C)C)c(-c4c(Cl)c(Cl)cc5[nH]ncc45)c3C)C2)C1 (single isomer, unassigned) [Example 307b] |
| 720 | C=CC(=O)N1CC2(CC(n3nc(N4CC[C@@H](CN5CC6(CCN(C7COC7)C6)C5)CC4(C)C)c(-c4c(Cl)c(Cl)cc5[nH]ncc45)c3C)C2)C1 (single isomer, unassigned) [Example 267a] |
| 3800 | C=CC(=O)N1CC2(CC(n3nc(N4CC[C@@H](CN5CCN6CCOC[C@@H]6C5)CC4(C)C)c(-c4c(Cl)c(Cl)cc5[nH]ncc45)c3C)C2)C1 (single isomer, unassigned) [Example 279a] |
| 2000 | C=CC(=O)N1CC2(CC(n3nc(N4CC[C@@H](CN5CCCN(C(C)=O)CC5)CC4(C)C)c(-c4c(Cl)c(Cl)cc5[nH]ncc45)c3C)C2)C1 (single isomer, unassigned) [Example 315a] |
| 7 | C=CC(=O)N1CC2(CC(n3nc(N4CC[C@@H](CN5CCN6C(=O)COC[C@@H]6C5)CC4(C)C)c(-c4c(Cl)c(Cl)cc5[nH]ncc45)c3C)C2)C1 (single isomer, unassigned) [Example 275b] |
| 6 | C=CC(=O)N1CC2(CC(n3nc(N4CC[C@@H](CN5C[C@@H]6CN(C(C)=O)C[C@@H]6C5)CC4(C)C)c(-c4c(Cl)c(Cl)cc5[nH]ncc45)c3C)C2)C1 (single isomer, unassigned) [Example 295b] |
| 3100 | C=CC(=O)N1CC2(CC(n3nc(N4CC[C@@H](CN5CCOC6CS(=O)(=O)CC65)CC4(C)C)c(-c4c(Cl)c(Cl)cc5[nH]ncc45)c3C)C2)C1 (single isomer, unassigned) [Example 266a, 1-(6-(4-(5,6-dichloro-1H-indazol-4-yl)-3-((R)-4-(((4aR*,7aS*)-6,6-dioxidohexahydro-4H-thieno[3,4-b][1,4]oxazin-4-yl)methyl)-2,2-dimethylpiperidin-1-yl)-5-methyl-1H-pyrazol-1-yl)-2-azaspiro[3.3]heptan-2-yl)prop-2-en-1-one] |
| > 5000 | C=CC(=O)N1CC2(CC(n3nc(N4CC[C@@H](CN5CC6(COCCN6C)C5)CC4(C)C)c(-c4c(Cl)c(Cl)cc5[nH]ncc45)c3C)C2)C1 (single isomer, unassigned) [Example 291a] |
| 1900 | C=CC(=O)N1CC2(CC(n3nc(N4CC[C@@H](CN5CCOC[C@@H](O)C5)CC4(C)C)c(-c4c(Cl)c(Cl)cc5[nH]ncc45)c3C)C2)C1 (single isomer, unassigned) [Example 292a] |
| 7 | C=CC(=O)N1CC2(CC(n3nc(N4CC[C@@H](CN5CCN(C6COC6)C6COCC65)CC4(C)C)c(-c4c(Cl)c(Cl)cc5[nH]ncc45)c3C)C2)C1 (single isomer, unassigned) [Example 280b, 1-(6-(4-(5,6-dichloro-1H-indazol-4-yl)-3-((R)-2,2-dimethyl-4-(((4aS*,7aR*)-4-(oxetan-3-yl)hexahydrofuro[3,4-b]pyrazin-1(2H)-yl)methyl)piperidin-1-yl)-5-methyl-1H-pyrazol-1-yl)-2-azaspiro[3.3]heptan-2-yl)prop-2-en-1-one] |
| > 5000 | C=CC(=O)N1CC2(CC(n3nc(N4CCN(c5ccnnc5)C[C@]4(C)CC)c(-c4c(Cl)c(C)cc5[nH]ncc45)c3C)C2)C1 (single isomer, unassigned) [Example 192a] |
| 19 | C=CC(=O)N1CC2(CC(n3nc(N4CC[C@@H](CN5CCC6COCC65)CC4(C)C)c(-c4c(C)c(Cl)cc5[nH]ncc45)c3C)C2)C1 (single isomer, unassigned) [Example 305b, 1-(6-(4-(6-chloro-5-methyl-1H-indazol-4-yl)-3-((R)-4-(((3aR*,6aR*)-hexahydro-1H-furo[3,4-b]pyrrol-1-yl)methyl)-2,2-dimethylpiperidin-1-yl)-5-methyl-1H-pyrazol-1-yl)-2-azaspiro[3.3]heptan-2-yl)prop-2-en-1-one] |

Further lines, the compound ahead of its results:

| Structure (SMILES) | IC50 [nM] |
| --- | --- |
| C=CC(=O)N1CC2(CC(n3nc(N4CCC5C(CC(=O)N5C)C4)c(-c4c(Cl)c(C)cc5[nH]ncc45)c3C)C2)C1 (single isomer, unassigned) [Example 38b, 5-(1-(2-acryloyl-2-azaspiro[3.3]heptan-6-yl)-4-(5-chloro-6-methyl-1H-indazol-4-yl)-5-methyl-1H-pyrazol-3-yl)-1-methyloctahydro-2H-pyrrolo[3,2-c]pyridin-2-one] | 89 |
| C=CC(=O)N1CC2(CC(n3nc(N4CCN(C[C@H]5COCCO5)CC45CCC5)c(-c4c(Cl)c(C)cc5[nH]ncc45)c3C)C2)C1 (single isomer, unassigned) [Example 189b] | 15 |
| C=CC(=O)N1CC2(CC(n3nc(N4CCN(C5CCOCC5)C[C@]4(C)CCOC)c(-c4c(Cl)c(C)cc5[nH]ncc45)c3C)C2)C1 (single isomer, unassigned) [Example 87b] | 1500 |
| C=CC(=O)N1CC2(CC(n3nc(N4CCC(N(C)C5COC5)CC45CCC5)c(-c4c(Cl)c(C)cc5[nH]nc(N)c45)c3C)C2)C1 (single isomer, unassigned) [Example 116b, 1-(6-(4-(3-amino-5-chloro-6-methyl-1H-indazol-4-yl)-5-methyl-3-(8-(methyl(oxetan-3-yl)amino)-5-azaspiro[3.5]nonan-5-yl)-1H-pyrazol-1-yl)-2-azaspiro[3.3]heptan-2-yl)prop-2-en-1-one] | 1900 |
| C=CC(=O)N1CC2(CC(n3nc(N4CCN(C5COC5)C5COCC54)c(-c4c(Cl)c(C)cc5[nH]ncc45)c3C)C2)C1 (stereo not drawn) [Example 137a, 1-(6-(4-(5-chloro-6-methyl-1H-indazol-4-yl)-5-methyl-3-((4aS*,7aS*)-4-(oxetan-3-yl)hexahydrofuro[3,4-b]pyrazin-1(2H)-yl)-1H-pyrazol-1-yl)-2-azaspiro[3.3]heptan-2-yl)prop-2-en-1-one] | > 5000 |
| C=CC(=O)N1CC2(CC(n3nc(N4CCN(C[C@@H]5COCCO5)CC4(C)C)c(-c4c(Cl)c(Cl)cc5[nH]ncc45)c3C)C2)C1 (single isomer, unassigned) [Example 172b] | 15 |
| C=CC(=O)N1CC2(CC(n3nc(N4CCN(C)CC45CCC5)c(-c4c(Cl)c(C)cc5[nH]ncc45)c3C)C2)C1 (single isomer, unassigned) [Example 55a, 1-(6-(4-(5-chloro-6-methyl-1H-indazol-4-yl)-5-methyl-3-(8-methyl-5,8-diazaspiro[3.5]nonan-5-yl)-1H-pyrazol-1-yl)-2-azaspiro[3.3]heptan-2-yl)prop-2-en-1-one] | 24700 |
| C=CC(=O)N1CC2(CC(n3nc(N4CCC(N5CCOCC5)CC4(C)C)c(-c4c(Cl)c(C)cc5[nH]ncc45)c3C)C2)C1 (single isomer, unassigned) [Example 34b, 1-(6-(4-(5-chloro-6-methyl-1H-indazol-4-yl)-3-(2,2-dimethyl-4-morpholinopiperidin-1-yl)-5-methyl-1H-pyrazol-1-yl)-2-azaspiro[3.3]heptan-2-yl)prop-2-en-1-one] | 13 |
| C=CC(=O)N1CC2(CC(n3nc(N4CCC(C)(O)CC4(C)C)c(-c4c(Cl)c(C)cc5[nH]ncc45)c3C)C2)C1 (single isomer, unassigned) [Example 27b, 1-(6-(4-(5-chloro-6-methyl-1H-indazol-4-yl)-3-(4-hydroxy-2,2,4-trimethylpiperidin-1-yl)-5-methyl-1H-pyrazol-1-yl)-2-azaspiro[3.3]heptan-2-yl)prop-2-en-1-one] | 24 |
| C=CC(=O)N1CC2(CC(n3nc(N4CCN(C5COC5)CC45CCC5)c(-c4c(Cl)c(Cl)cc5[nH]ncc45)c3C)C2)C1 (single isomer, unassigned) [Example 72a] | 3100 |
| C=CC(=O)N1CC2(CC(n3nc(N4CCN(C5(C)COC5)CC45CCC5)c(-c4c(Cl)c(C)cc5[nH]ncc45)c3C)C2)C1 (single isomer, unassigned) [Example 191b, 1-(6-(4-(5-Chloro-6-methyl-1H-indazol-4-yl)-5-methyl-3-(8-(3-methyloxetan-3-yl)-5,8-diazaspiro[3.5]nonan-5-yl)-1H-pyrazol-1-yl)-2-azaspiro[3.3]heptan-2-yl)prop-2-en-1-one] | 14 |

From patent US20240317721A1, “PYRAZOLYL DERIVATIVES AS INHIBITORS OF THE KRAS MUTANT PROTEIN” (NOVARTIS AG, priority 2021, published 2024)
